According to patent publication US4678782A, “3S-formamido azetidinone antibacterial agents, their preparation and use” (Beecham Group p.l.c., priority 1982, dated 1987):

Columns and labels:
Format in all cases: cell-based
P. morganii = assay: standard microtitre (MIC) test, P. morganii; conditions: Morganella morganii
Source text: (§1) In a standard microtitre (MIC) test, the compound of Example 14 gave the following data: […]

K. aerogenes A = assay: standard microtitre (MIC) test, K. aerogenes A; conditions: Klebsiella aerogenes
Source text: as §1

E. coli NCTC 10418 = assay: standard microtitre (MIC) test, E. coli NCTC 10418; conditions: Escherichia coli, NCTC10418
Source text: as §1

S. marcescens US32 = assay: standard microtitre (MIC) test, S. marcescens US32; conditions: Serratia marcescens
Source text: as §1

E. cloacae N1 = assay: standard microtitre (MIC) test, E. cloacae N1; conditions: Enterobacter cloacae
Source text: as §1

S. aureus Russell = assay: standard microtitre (MIC) test, S. aureus Russell; conditions: Staphylococcus aureus
Source text: as §1

E. coli JT4 = assay: standard microtitre (MIC) test, E. coli JT4; conditions: Escherichia coli
Source text: as §1

MIC (P. morganii): 6.4 µg/mL | MIC (K. aerogenes A): 3.2 µg/mL | MIC (E. coli NCTC 10418): 12.5 µg/mL | MIC (S. marcescens US32): 12.5 µg/mL | MIC (E. cloacae N1): 12.5 µg/mL | MIC (S. aureus Russell): 3.2 µg/mL | MIC (E. coli JT4): 25 µg/mL
Structure (SMILES): CCN1CCN(C(=O)N[C@@H](C(=O)NC2(NC=O)CN(S(=O)(=O)O)C2=O)c2ccccc2)C(=O)C1=O (stereo partly drawn) [Example 14, (3RS)-Potassium-3-[D-2-(4-Ethyl-2,3-dioxopiperazin-1-yl-carboxamido)-2-phenylacetamido]-3-formamido-2-oxo-azetidine-1-sulphonate]
